According to patent US9414998B2, “Preventing or ameliorating agent for pigmentation” (Pola Chemical Industries Inc., priority 2009, dated 2016):

How the values were obtained:
normal human melanocyte = test: Ultraviolet B (UVB)-induced activation inhibition test using normal human melanocyte (MTT, supernatant of UVB-irradiated keratinocytes); assay type: cell-based; conditions: light or radiation study, UVB 5 mJ/cm^2, compound 100 mM in DMSO diluted 1,000 times, formazan production ratio, DMSO negative control irradiated with UVB = 100, average of three measurements, read-out: Melanocyte proliferation ratio Average (%)
Method: The suppressing effect of each of the compounds, which was exerted on the activation of melanocyte by the melanocyte activating factor produced and released from normal human keratinocyte by the ultraviolet B (UVB), was investigated by using the index of the cell proliferation function of normal human melanocyte.
Normal human keratinocyte cells (Kurabo Industries, Ltd.) were seeded by using Humedia-KG2 medium (Kurabo Industries, Ltd.) at a concentration of 10×10^4 cells/well in 24-well plate, followed by being cultured for 24 hours.
The compound to be evaluated was dissolved at a concentration of 100 mM in DMSO, which was diluted 1,000 times with Humedia-KG2 medium and used as a sample solution. As for the positive control group, tranexamic acid was dissolved at a concentration of 100 mM in DMSO, which was diluted 1,000 times with Humedia-KG2 medium and used as a positive control sample solution. As for the negative control group, DMSO was diluted 1,000 times with Humedia-KG2 medium, which was used as a negative control sample solution. A concentration, at which the cell proliferation of normal human melanocyte was not affected, was set for each of the compounds.
The medium of normal human keratinocyte was exchanged with Humedia-KG2 medium (sample solution) containing the compound at a predetermined concentration, and the cells were cultured for further 24 hours. After that, the medium was exchanged with PBS (phosphate buffered saline), and cells were irradiated with the ultraviolet B (UVB) at 5 mJ/cm^2 by using an ultraviolet lamp (FL20S•E-30/DMR, Toshiba Medical Supply Co., Ltd.) as a light source. After the ultraviolet radiation, PBS was exchanged with the sample solution. Cells were cultured for further 24 hours, and then the culture supernatant was collected.
Normal human melanocyte cells were seeded to 96-well plate by using a medium of Medium 254 (Kurabo Industries, Ltd.) so that the concentration was 3×10^4 cells/well, and the cultivation was performed for 24 hours. After that, the medium was exchanged with the culture supernatant collected from normal human keratinocyte, and the cells were cultured for further 24 hours. After the cultivation for 24 hours, the medium was exchanged with Humedia-KG2 medium containing 0.5 mg/mL of 3-(4,5-dimethyl-2-thiazoyl)-2,5-diphenyl-2H-tetrazolium bromide (MTT), and the cultivation was performed for 3 hours.
The formazan amount was determined by measuring the absorbances at 570 nm and 690 nm of cell lysate prepared with 2-propanol by means of a microplate reader (Benchmark Plus, Bio-Rad) and subtracting the absorbance at 690 nm from the absorbance at 570 nm.
The suppressing effect of each of the compounds on the melanocyte proliferation was represented by the percentage (%) as the formazan production ratio while the absorbance of the DMSO added group (negative control group) irradiated with the ultraviolet B (UVB) was assumed as 100.
It can be judged that the lower the production ratio of formazan is, the lower the melanocyte proliferation ratio is. Therefore, when the production ratio of formazan is lower, it is possible to judge that the suppressing activity of the compound to be evaluated is high with respect to the activation of melanocyte by the melanocyte activating factor produced and released by normal human keratinocyte.

pigmented guinea pigs = test: Ultraviolet ray-induced pigmentation inhibition test using pigmented guinea pigs; assay type: in vivo, guinea pig; conditions: 3% (w/v) in ethanol, 30 μL once a day for 5 weeks; L* on 36th day minus L* before ultraviolet radiation; average ± standard deviation of 8 samples; solvent control −11.83 ± 0.78
From the text: Skins of backs of eight pigmented guinea pigs were subjected to the hair removal and the hair shaving with electric hair clippers and shaver, and these sites were covered with black cloths each having four radiation windows of 2×2 cm in total disposed at two upper left and right positions and two lower left and right positions respectively. After that, the ultraviolet ray was radiated at 300 mJ/cm^2 by using FL20S•E30 lamp as the light source. This operation was repeatedly performed on 1st, 3rd, 5th, and 8th days of the test to induce the pigmentation at the four test sites. The compound to be evaluated (Compound 1) was dissolved and prepared in ethanol so that the concentration was 3% (w/v). Ethanol was applied as the solvent control group. The application of each of the compounds to be evaluated was started from the time of completion of the ultraviolet radiation on the 1st day of the test. Each of the compounds to be evaluated was applied in an amount of 30 μL once a day to the predetermined test sites, and this procedure was continuously carried out for 5 weeks (until 35th day of the test). […]

Compound	activity at 100 µM (normal human melanocyte)	ΔL* value (pigmented guinea pigs)
Cc1ccc(C(=O)NC(CO)C(=O)O)cc1 (racemic) [Compound 3, N-(p-methylbenzoyl)serine]	61.6%	–
COCC(NC(=O)c1ccc(C)cc1)C(=O)O (racemic) [Compound 9, N-(p-methylbenzoyl)-O-methylserine]	62.3%	–
COCC(NC(=O)c1ccc2ccccc2c1)C(=O)O (racemic) [Compound 13, N-(2-naphthoyl)-O-methylserine]	80.3%	–
COCC(NC(=O)c1ccccc1)C(=O)O (racemic) [Compound 16, N-benzoyl-O-methylserine]	65.5%	–
Cc1ccc(C(=O)N[C@@H](CO)C(=O)O)cc1 [Compound 1, N-(p-methylbenzoyl)-L-serine]	57%	−9.98 ± 0.71
O=C(N[C@@H](CO)C(=O)O)c1ccccc1 [Compound 2, N-benzoyl-serine]	60.9%	–
O=C(N[C@@H](CO)C(=O)O)c1ccc(F)cc1 [Compound 4, N-(p-fluorobenzoyl)serine]	55.3%	–
COc1ccc(C(=O)N[C@@H](CO)C(=O)O)cc1 [Compound 5, N-(p-methoxybenzoyl)serine]	63.4%	–
CCc1ccc(C(=O)N[C@@H](CO)C(=O)O)cc1 [Compound 7, N-(p-ethylbenzoyl)serine]	65.1%	–
O=C(N[C@@H](CO)C(=O)O)c1ccc(C(F)(F)F)cc1 [Compound 8, N-(p-trifluoromethylbenzoyl)serine]	53.9%	–
O=C(N[C@@H](CO)C(=O)O)c1ccc2ccccc2c1 [Compound 10, N-(2-naphthoyl)serine]	82.4%	–
CC(=O)OC[C@H](NC(=O)c1ccc(C)cc1)C(=O)O [Compound 11, N-(p-methylbenzoyl)-O-acetylserine]	71.8%	–
COC(=O)[C@H](CO)NC(=O)c1ccc2ccccc2c1 [Compound 12, N-(2-naphthoyl)serine methyl ester]	83.1%	–
O=C(N[C@@H](CO)C(=O)O)c1ccc(-c2ccccc2)cc1 [Compound 14, N-(4-phenylbenzoyl)serine]	75%	–
Cc1ccc(C(=O)NC(CO)C(=O)O)cc1 (stereo not drawn) [Compound 15, N-(p-methylbenzoyl)serine]	60.2%	–
CCOC(=O)[C@H](CO)NC(=O)c1ccc(C)cc1 [Compound 17, N-(p-methylbenzoyl)serine ethyl ester]	73.6%	–
NC[C@H]1CC[C@H](C(=O)O)CC1 [Tranexamic acid, tranexamic acid, reference compound]	82%	–
